According to BindingDB's records for doi:10.7270/Q2ZC8184 (Nmmlsc, 2010):

Target: Glutathione S-transferase class-mu 26 kDa isozyme (Schistosoma japonicum, UniProt P08515)
Test: GST–glutathione bead interaction interference profiling – biochemical, multiplex beads, flow cytometry, profiling panel (AID 1769)

Chain of Glutathione S-transferase class-mu 26 kDa isozyme (P08515 2-218 limits assumed): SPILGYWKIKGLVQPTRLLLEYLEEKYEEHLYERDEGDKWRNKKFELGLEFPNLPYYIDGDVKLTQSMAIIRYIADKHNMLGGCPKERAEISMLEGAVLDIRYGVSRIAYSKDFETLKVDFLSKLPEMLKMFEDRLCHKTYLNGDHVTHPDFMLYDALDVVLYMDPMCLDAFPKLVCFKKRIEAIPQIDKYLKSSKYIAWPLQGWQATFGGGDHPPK

| Structure (SMILES) | EC50 [µM] |
| --- | --- |
| COc1ccc(-c2csc(-c3c(O)cn(C(C)C)c3N)n2)cc1OC [5-amino-4-[4-(3,4-dimethoxyphenyl)-1,3-thiazol-2-yl]-1-propan-2-yl-2H-pyrrol-3-one] | 87.3 |
| Cc1ccc(O)c(/N=C/C2=CC(Cc3ccccc3)C=C([N+](=O)[O-])C2=O)c1 (stereo not drawn) [(6E)-6-[[(5-methyl-2-oxidanyl-phenyl)amino]methylidene]-2-nitro-4-(phenylmethyl)cyclohexa-2,4-dien-1-one] | 8.29 |
| CCn1cc(C(=O)O)c(=O)c2cc(F)c(N=NCc3ccccc3)cc21 [1-Ethyl-6-fluoro-4-oxo-7-{N'-[1-phenyl-meth-(E)-ylidene]-hydrazino}-1,4-dihydro-quinoline-3-carboxylic acid] | 3.88 |
| CN1C(=O)/C(=C2/C(=O)Nc3ccccc32)NC1=S [SMR000198608] | 13.4 |
| NC(=S)NNC1=c2cc(Br)cc(Br)c2=NC1=O [1-[[5,7-bis(bromanyl)-2-oxidanylidene-indol-3-yl]amino]thiourea] | 69.1 |
| CCOC1=CC(=Cc2sc(=O)[nH]c2N)C=CC1=O | 2.47 |
| COC(=O)c1cc(NC(=O)c2cccc(Cl)c2)c(=O)oc1CC=Nc1cc(C)cc(C)c1 [5-[(3-chlorobenzoyl)amino]-2-[(E)-2-(3,5-dimethylanilino)vinyl]-6-keto-pyran-3-carboxylic acid methyl ester] | 0.567 |
| CCN(c1ccc(NC=C2C(=O)N(Cc3ccc(OC)cc3)C(=O)c3ccccc32)cc1)C(C)C [(4E)-4-[[[4-[ethyl(propan-2-yl)amino]phenyl]amino]methylidene]-2-[(4-methoxyphenyl)methyl]isoquinoline-1,3-dione] | 0.249 |
| COc1cc(CN=Nc2nc(C)nc3c2cnn3-c2ccccc2)ccc1O [(4E)-2-methoxy-4-[[(6-methyl-1-phenyl-4-pyrazolo[3,4-d]pyrimidinyl)hydrazo]methylidene]-1-cyclohexa-2,5-dienone] | 0.638 |
| CCNC(=S)NN=C1C(=O)Nc2ccc([N+](=O)[O-])cc21 [MLS000773526] | 1.93 |
| Oc1ccc2ccccc2c1CN=Nc1nnc(-c2ncc[nH]2)c2ccccc12 [SMR000151639] | 1.95 |
| NC(=S)NNC1=c2cc(F)c(F)cc2=NC1=O [MLS000589334] | 15.6 |
| O=c1[nH]c(=O)c2nnc(N=NCc3ccc(O)cc3)nc2[nH]1 [3-[2-[(4-oxidanylidenecyclohexa-2,5-dien-1-ylidene)methyl]hydrazinyl]-5H-pyrimido[4,5-e][1,2,4]triazine-6,8-dione] | 3.79 |
| COc1ccc(N=CCc2nc(SC)nnc2C)cc1 [(4-methoxyphenyl)-[(E)-2-[6-methyl-3-(methylthio)-1,2,4-triazin-5-yl]vinyl]amine] | 2.76 |
| CC(N=Nc1ccc(S(N)(=O)=O)cc1[N+](=O)[O-])c1ccc2c(c1)OCO2 (stereo not drawn) | 1.4 |
| COc1cc(CN=Nc2ncnc3sc4c(c23)CCC4)ccc1O [SMR000242188] | 14.5 |
| O=c1[nH]c(N=NCc2ccc(O)cc2)nc2ccccc12 [MLS000571412] | 7.68 |
| Cc1nc(N=NCc2ccc(O)cc2)c2cnn(-c3ccccc3)c2n1 [4-[[(6-methyl-1-phenyl-4-pyrazolo[3,4-d]pyrimidinyl)hydrazo]methylidene]-1-cyclohexa-2,5-dienone] | 3.58 |
| O=C(Cc1ccccc1)NCC(=O)N/N=C1\C(=O)N(Cc2ccc3c(c2)OCO3)c2ccccc21 [MLS000587449] | 12 |
| CCOc1ccc2c(c1)C(=NN=C(N)N)C(=O)N2C [SMR000207554] | 25.6 |
| CCn1cc(C(=O)O)c(=O)c2cc(F)c(N=NCc3ccccc3[N+](=O)[O-])cc21 [SMR000171611] | 2.67 |
| CC(C)NC(=S)NN=C1C(=O)Nc2ccc([N+](=O)[O-])cc21 [1-[(5-nitro-2-oxidanylidene-indol-3-yl)amino]-3-propan-2-yl-thiourea] | 1.43 |
| Cc1cc(N=NCc2ccc(O)cc2O)nc(-n2nc(C)cc2C)n1 [(4E)-4-[[2-[2-(3,5-dimethylpyrazol-1-yl)-6-methyl-pyrimidin-4-yl]hydrazinyl]methylidene]-3-oxidanyl-cyclohexa-2,5-dien-1-one] | 0.831 |
